In patent US6395786B1, “Sleep inducing agent” (Taisho Pharmaceutical Co., Ltd., priority 1998, dated 2002):

Test system: male rhesus monkeys
Assay: Sleep-inducing test by cisternal administration (videotape sleep score)
Assay type: in vivo
Settings: 10 μg/monkey, 45 minutes after the administration, FIG. 2
Procedure: [Sleep-inducing Test by Cisternal Administration]
Three male rhesus monkeys weighing 3.6-4.4 kg were individually placed in cages, and the behaviors of the animals were recorded by videotape for an hour before administration of the drug and for 5 hours after administration of the drug. Compound 32 and prostaglandin D2 methyl ester (PGD2) were each dissolved in saline solution and sterilized through a Millipore filter. The drugs were infused cisternally to the monkeys anesthetized with isohalothane inhalation. The doses were 1 μg and 10 μg/0.1 ml/monkey. The same doses of the vehicle were infused cisternally to give a control group. The test was carried out according to the following test schedule.
Week 1: Group treated with vehicle
Week 2: Group treated with 1 μg of Compound 32/monkey
Week 3: Group treated with 10 μg of Compound 32/monkey
Week 4: Group treated with 10 μg of PGD2/monkey
To determine the sleep, the period for which the monkey closed both eyes was measured at intervals of 15 minutes by playing back the recorded videotape, and the results were scored according to the following scales.

**Q.** `CCCCC[C@H](O)/C=C/[C@H]1C(=O)C[C@H](O)[C@@H]1C/C=C\CCCC(=O)OC` [prostaglandin D2 methyl ester] was tested. Which sleep action observed did it give?
**A.** Its sleep action observed is “transient sleep action”.
